Results: ChEMBL document CHEMBL5038651, “Design, Synthesis, and Biological Evaluation of 2-((4-Bisarylmethyl-piperazin-1-yl)methyl)benzonitrile Derivatives as HCV Entry Inhibitors” (J Med Chem, 2022)
Active and inactive are the calls of the source. The rule behind the calls is not given here.

What was measured:
[1] = Cytotoxicity against human Huh7.5 cells assessed as reduction in cell viability incubated for 96 hrs by MTT assay; assay type: toxicity, cell-based, Huh-7.5; details: Huh7.5 cells
Hepatitis C virus [2] = assay: Antiviral activity against HCV infected in human Huh7.5 cells incubated for 72 hrs by in-cell western assay; assay type: functional, organism-based, Hepacivirus hominis; details: Huh7.5, 72 h
[3] = Selectivity index, ratio of CC50 for cytotoxicity against human Huh7.5.1 cells to EC50 for antiviral activity against HCV infected in human Huh7.5.1 cells; assay type: toxicity, cell-based
Hepacivirus hominis = assay: Binding affinity to HCV E1 protein at 12.5 to 200 uM by SPR analysis; details: dose 12.5-200 µM
Hepatitis C virus [4] = assay: Antiviral activity against HCV infected in human Huh7.5 cells assessed as reduction in HCV core protein expression measured after 72 hrs by Western blotting analysis; assay type: functional, organism-based; details: Hepacivirus hominis
Hepatitis C virus [5] = assay: Antiviral activity against HCV infected in human Huh7.5 cells assessed as reduction in HCV core protein expression at 6.4 nM incubated for 72 hrs by in-cell western assay; assay type: functional, organism-based; details: Hepacivirus hominis
Hepatitis C virus [6] = assay: Antiviral activity against HCV infected in human Huh7.5 cells assessed as reduction in viral RNA level measured after 72 hrs by RT-qPCR analysis; assay type: functional, organism-based; details: Hepacivirus hominis
Hepatitis C virus [7] = assay: Antiviral activity against HCV infected in human Huh7.5 cells assessed as reduction in HCV core protein expression pre-infected with virus for 2 hrs followed by compound addition and measured after 72 hrs by Western blotting analysis; assay type: functional, organism-based; details: Hepacivirus hominis
[8] = Selectivity index, ratio of CC50 for cytotoxicity against human Huh7.5 cells infected with HCVcc to EC50 for antiviral activity against HCVcc infected in human Huh7.5 cells; assay type: toxicity, cell-based; details: read-out: Ratio CC50/EC50
[9] = biological target: Histamine H1 receptor (Homo sapiens) (UniProt P35367); assay: Antagonist activity against H1 receptor (unknown origin) expressed in HEK cells at 1 uM relative to control; assay type: functional, cell-based
Sequence of Histamine H1 receptor (Homo sapiens) (P35367 whole entry): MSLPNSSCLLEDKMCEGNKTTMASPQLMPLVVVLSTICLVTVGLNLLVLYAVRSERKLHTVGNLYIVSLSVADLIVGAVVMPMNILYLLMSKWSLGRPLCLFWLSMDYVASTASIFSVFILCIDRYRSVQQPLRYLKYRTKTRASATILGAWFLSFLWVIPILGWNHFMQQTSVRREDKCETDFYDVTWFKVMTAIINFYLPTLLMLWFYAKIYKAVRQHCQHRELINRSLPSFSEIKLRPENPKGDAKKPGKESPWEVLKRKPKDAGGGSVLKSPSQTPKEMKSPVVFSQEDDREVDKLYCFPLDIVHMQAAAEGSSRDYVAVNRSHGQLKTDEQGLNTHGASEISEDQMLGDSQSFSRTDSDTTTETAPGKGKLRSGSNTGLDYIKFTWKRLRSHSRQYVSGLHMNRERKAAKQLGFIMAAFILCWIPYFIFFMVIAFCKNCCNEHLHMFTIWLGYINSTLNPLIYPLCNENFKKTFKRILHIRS

Hepatitis C virus [10] = assay: Antiviral activity against HCV infected in human Huh7.5 cells assessed as reduction in viral RNA level pre-infected with virus for 2 hrs followed by compound addition and measured after 72 hrs by RT-qPCR analysis; assay type: functional, organism-based; details: Hepacivirus hominis
Hepatitis C virus [11] = assay: Antiviral activity against HCV infected in human Huh7.5 cells assessed as reduction in HCV core protein expression preincubated for 2 hrs followed by viral infection and measured after 72 hrs by Western blotting analysis; assay type: functional, organism-based; details: Hepacivirus hominis, time 74.0 hrs
Hepatitis C virus [12] = assay: Antiviral activity against HCV infected in human Huh7.5 cells carrying HCV subgenomic replicons assessed as inhibition of viral replication at 1.4 uM; assay type: functional, organism-based; details: Hepacivirus hominis
Hepatitis C virus [13] = assay: Antiviral activity against HCV infected in human Huh7.5 cells assessed as reduction in viral RNA level preincubated for 2 hrs prior to viral infection and measured after 72 hrs by RT-qPCR analysis; assay type: functional, organism-based; details: Hepacivirus hominis, time 74.0 hrs
Hepatitis C virus [14] = assay: Antiviral activity against HCVcc infected in human Huh7.5 cells assessed as inhibition of viral replication; assay type: functional, organism-based, Hepacivirus hominis
[15] = Cytotoxicity against human Huh7.5 cells infected with HCVcc assessed as reduction in cell viability incubated for 96 hrs by MTT assay; assay type: toxicity, cell-based, Huh-7.5
[16] = Cytotoxicity against human Huh7.5 cells carrying HCV subgenomic replicons assessed as reduction in cell viability incubated for 96 hrs by MTT assay; assay type: toxicity, cell-based, Huh-7.5
Hepatitis C virus [17] = assay: Antiviral activity against HCV infected in human Huh7.5 cells carrying HCV subgenomic replicons assessed as inhibition of viral replication; assay type: functional, organism-based, Hepacivirus hominis

Row | Compound | CC50 at 96 h [1] | EC50 (Hepatitis C virus [2]) | selectivity ratio ([3]; read-out: Ratio CC50/EC50) | other results
1 | CNCCN(C)CCN(C)c1ccc(C#N)c(CN2CCN(C(c3ccccc3)c3ccc(Cl)cc3)CC2)c1 (centres undefined) | 4.71 µM | 0.095 µM | 49 | –
2 | N#Cc1ccc(NCCCn2ccnc2)cc1CN1CCN(C(c2ccc(F)cc2)c2ccc(F)cc2)CC1 | 5.89 µM | 0.162 µM | 36 | –
3 | COCCOc1ccc(C#N)c(CN2CCN(C(c3ccc(F)cc3)c3ccc(F)cc3)CC2)c1 | 6.45 µM | > 20 µM | – | –
4 | CN(C)CCN(C)c1ccc(C#N)c(CN2CCN(C(c3ccc(F)cc3)c3ccc(F)cc3)CC2)c1 | 7.81 µM | 0.008 µM | 976 | Activity (Hepacivirus hominis): Active
5 | CN1CCCN(c2ccc(C(F)(F)F)c(CN3CCN(c4ccc(Cl)cc4)CC3)c2)CC1 | 2.56 µM | 0.003 µM | 855 | –
6 | CN(C)CCN(C)c1ccc(C#N)c(CN2CCN([C@H](c3ccccc3)c3ccc(Cl)cc3)CC2)c1 | 8.23 µM | 0.01 µM | 823 | –
7 | CN(C)CCN(C)c1ccc(C#N)c(CN2CCN(Cc3ccc(F)cc3)CC2)c1 | 52.7 µM | 3.56 µM | 14 | –
8 | CN1CCCN(c2ccc(C#N)c(CN3CCN(C(=O)c4ccc(F)cc4)CC3)c2)CC1 | 13.8 µM | > 4 µM | – | –
9 | CN1CCCN(c2ccc(C#N)c(CN3CCN([C@@H](c4ccccc4)c4ccc(Cl)cc4)CC3)c2)CC1 | > 20 µM | 0.055 µM | > 364 | –
10 | CN(C)CCN(C)c1ccc(C#N)c(CN2CCN(C(=O)c3ccc(Cl)cc3)CC2)c1 | 10.1 µM | 12.2 µM | – | –
11 | N#Cc1ccc(NCCCn2ccnc2)cc1CN1CCN(C(c2ccccc2)c2ccccc2)CC1 | > 20 µM | 0.243 µM | > 82 | –
12 | CN1CCCN(c2ccc(C#N)c(CN3CCN(C(=O)c4ccc(Cl)cc4)CC3)c2)CC1 | 9.7 µM | > 4 µM | – | –
13 | N#Cc1ccc(NCCCn2ccnc2)cc1CN1CCN(C(c2ccc(Cl)cc2)c2ccc(Cl)cc2)CC1 | > 20 µM | 0.11 µM | > 182 | –
14 | CN(C)CCN(C)c1ccc(C#N)c(CN2CCN([C@@H](c3ccccc3)c3ccc(Cl)cc3)CC2)c1 | 8.78 µM | 0.016 µM | 549 | –
15 | CN1CCCN(c2ccc(C(F)(F)F)c(CN3CCN(C(c4ccccc4)c4ccc(Cl)cc4)CC3)c2)CC1 (centres undefined) | 1.29 µM | 0.083 µM | 15 | –
16 | CN(C)CCN(C)c1ccc(C#N)c(CN2CCN(C(c3ccccc3)c3ccc(Cl)cc3)CC2)c1 (centres undefined) | 5.66 µM | 0.004 µM | 1410 | Activity (Hepatitis C virus [4]): Active; Activity (Hepatitis C virus [5]): Active; Activity (Hepatitis C virus [6]): inactive; Activity (Hepatitis C virus [7]): Active; selectivity ratio [8]: 649; Activity [9]: inactive; Activity (Hepatitis C virus [10]): Active; Activity (Hepatitis C virus [11]): inactive; Activity (Hepatitis C virus [12]): inactive; Activity (Hepatitis C virus [13]): inactive

Row | Compound | CC50 at 96 h [1] | EC50 (Hepatitis C virus [2]) | selectivity ratio ([3]; read-out: Ratio CC50/EC50) | other results
17 | CN(C)CCN(C)c1ccc(C#N)c(CN2CCN(C(c3ccccc3)c3ccccc3)CC2)c1 | > 20 µM | 0.045 µM | > 444 | –
18 | CN(C)CCN(C)c1ccc(C#N)c(CN2CCN(C(c3ccc(Cl)cc3)c3ccc(Cl)cc3)CC2)c1 | 3.33 µM | 0.003 µM | – | –
19 | CN1CCCN(c2ccc(C(F)(F)F)c(CN3CCN(C(c4ccc(F)cc4)c4ccc(F)cc4)CC3)c2)CC1 | 1.45 µM | 0.007 µM | 206 | –
20 | CC(c1ccccc1)N1CCN(Cc2cc(N(C)CCN(C)C)ccc2C#N)CC1 (centres undefined) | 44.1 µM | 1.03 µM | 43 | –
21 | COCCOc1ccc(C#N)c(CN2CCN(c3ccc(C(F)(F)F)cc3)CC2)c1 | 2.97 µM | 1.52 µM | – | –
22 | CN1CCN(C(c2ccccc2)c2ccc(Cl)cc2)CC1 (centres undefined) [CHLORCYCLIZINE] | – | – | – | Activity (Hepatitis C virus [5]): inactive; EC50 (Hepatitis C virus [14]): 0.0676 µM; CC50 at 96 h [15]: 30.8 µM; CC50 at 96 h [16]: 30.2 µM; selectivity ratio [8]: 456; inhibition ([9]; filed as antagonist): 99%; EC50 (Hepatitis C virus [17]): > 1.6 µM
23 | CN1CCCN(c2ccc(C#N)c(CN3CCN(c4ccc(Cl)cc4)CC3)c2)CC1 | 9.59 µM | 0.11 µM | 87 | –
24 | CN(C)CCN(C)c1ccc(C#N)c(CN2CCN(Cc3ccc(Cl)cc3)CC2)c1 | 18.1 µM | 1.04 µM | 17 | –
25 | N#Cc1ccc(NCCCn2ccnc2)cc1CN1CCN(C(c2ccccc2)c2ccc(Cl)cc2)CC1 (centres undefined) | 5.38 µM | 0.22 µM | 24 | –
26 | CN(C)CCN(C)c1ccc(C(F)(F)F)c(CN2CCN(C(c3ccccc3)c3ccc(Cl)cc3)CC2)c1 (centres undefined) | 6.96 µM | 0.271 µM | 26 | –
27 | CN(C)CCN(C)c1ccc(C#N)c(CN2CCN(c3ccc(C(F)(F)F)cc3)CC2)c1 | 13.2 µM | 0.013 µM | 1010 | –
28 | CC(c1ccccc1)N1CCN(Cc2cc(N3CCCN(C)CC3)ccc2C#N)CC1 (centres undefined) | 31.3 µM | 0.956 µM | 33 | –
29 | CN(C)CCN(C)CCN(C)c1ccc(C#N)c(CN2CCN(C(c3ccccc3)c3ccc(Cl)cc3)CC2)c1 (centres undefined) | 6.34 µM | 0.073 µM | 87 | –
30 | CC(C)OC(=O)[C@H](C)N[P@](=O)(OC[C@H]1O[C@@H](n2ccc(=O)[nH]c2=O)[C@](C)(F)[C@@H]1O)Oc1ccccc1 [SOFOSBUVIR] | > 200 µM | 0.082 µM | > 2440 | Activity (Hepatitis C virus [5]): inactive; EC50 (Hepatitis C virus [14]): 0.129 µM; Activity (Hepacivirus hominis): inactive; CC50 at 96 h [15]: 171 µM; CC50 at 96 h [16]: 121 µM; selectivity ratio [8]: 1330; EC50 (Hepatitis C virus [17]): 0.18 µM; selectivity ratio ([3]; read-out: Ratio): > 3280
31 | CN1CCCN(c2ccc(C#N)c(CN3CCN(Cc4ccccc4)CC3)c2)CC1 | > 100 µM | 21.1 µM | – | –
